Experimental findings from patent publication US5300672A (priority 1992, dated 1994) are described below.

Where two headings read alike, the source gives them in different places.

The subject of one assay is Pseudomonas fluorescens. As to the kind of experiment: Alternate Minimum Inhibitory Concentrations Test (Table 4), Ps.fl. In kind it is cell-based. The note with it: Table 4 alternate test, 250 ppm to 0.8 ppm in TSB, 72 hours, 30° C.; for MIC: Pseudomonas fluorescens, read-out: MIC Ps.fl. The method, boiled down:
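MIC taken as lowest concentration showing no growth after 72 h incubation at 30 °C in TSB. Twofold dilution series spanned 250 down to 0.8 ppm, wells inoculated with phosphate-buffer-diluted 24 h culture.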

The subject of assay [1] is Pseudoperonospora cubensis. As to the kind of experiment: whole plant or invertebrate. In kind it is in vivo. The note with it: Pseudoperonospora cubensis, in Cucumis sativus, 168 h; read-out: % Control CDM.
The next assay deals with Piricularia oryzae. Briefly: whole plant or invertebrate. In kind it is in vivo. The note with it: Pyricularia oryzae.
In assay [2] the test system is Pellicularia filamentosa (f. sp. sasiki). As to the kind of experiment: whole plant or invertebrate. In kind it is in vivo.
The subject of a further assay is Phytophthora infestans. Briefly: whole plant or invertebrate. In kind it is in vivo. The following applies: Phytophthora infestans, in Solanum lycopersicum, 96 h.
Assay [3] deals with Puccinia recondita (f. sp. tritici Races PKB and PLD). As to the kind of experiment: whole plant or invertebrate. In kind it is in vivo. The following applies: Puccinia recondita, 240 h; read-out: % Control WLR.
In assay [4] the test system is Erysiphe graminis (f. sp. tritici). Briefly: whole plant or invertebrate. In kind it is in vivo. The following applies: Blumeria graminis; read-out: % Control WPM.
Assay [5] deals with Puccinia graminis (f. sp. tritici Race 15B-2). Briefly: whole plant or invertebrate. In kind it is in vivo. The following applies: Puccinia graminis, 336 h, read-out: % Control WSR.
Where [6] appears, read: read-out: % Control RB, application rate 200 ppm.

Regarding `CCCCCCCCNC(=O)/C=C\SC(=O)c1c[nH]c2ccccc12` [Compound 77, N-octyl-cis-3-[(3-indole)carbonylthio]acrylamide], in the assay on Pseudomonas fluorescens, the MIC was over 250 µg/mL. The pest or weed control at 200 ppm in assay [1] stood at 85%; in the assay on Piricularia oryzae (setting [6]) it was 90%; in assay [2] (120 h, read-out: % Control RSB), 0%; in the assay with Phytophthora infestans (read-out: % Control TLB), 90%; in assay [3], 80%; in assay [4] it was 0%.

As to `CCCCCCCCNC(=O)/C=C\SC(=O)C1CC1` [Compound 49, N-octyl-cis-3-(cyclopropanecarbonylthio)acrylamide], the minimal inhibitory concentration (MIC) in the assay on Pseudomonas fluorescens was over 250 µg/mL. Besides, the pest or weed control at 50 ppm in assay [1] amounted to 99%. Besides, the pest or weed control at 12 ppm in the assay with Piricularia oryzae (read-out: % Control RB, application rate 12 ppm) amounted to 50%. For the same compound, the pest or weed control at 100 ppm in the assay on Phytophthora infestans (read-out: % Control TLB) was determined as 80%. For the same compound, in assay [5], the pest or weed control at 200 ppm is 75%.

As to `CCCCCCCCNC(=O)/C=C\SC(=O)CCc1ccccc1` [Compound 91, N-octyl-cis-3-[(3-phenylpropanoyl)thio]acrylamide], the “MIC Ps.fl” value against Pseudomonas fluorescens is on record as over 250 Ppm. The pest or weed control at 200 ppm in assay [1] was 70%; in the assay on Piricularia oryzae (read-out: % Control RB) it was 70%; in the assay with Phytophthora infestans (read-out: % Control TLB), 80%; in assay [3], 25%. The “% Control RSB” value in assay [2] (in vivo) was found to be 0 % Control. Further, the pest or weed control at 12 ppm in assay [4] stood at 85%.

Consider `CCCCC/C=C/C(=O)S/C=C\C(=O)NCCCCCCCC` [Compound 92, N-octyl-cis-3-[(trans-2-octenoyl)thio]acrylamide], for which, in the assay with Pseudomonas fluorescens, the MIC was over 250 µg/mL. For the same compound, the pest or weed control at 200 ppm in assay [1] was found to be 85%; with Piricularia oryzae (read-out: % Control RB), 70%; in assay [2] (120 h, read-out: % Control RSB), 0%; in the assay with Phytophthora infestans (read-out: % Control TLB), 90%. Also, the pest or weed control at 50 ppm in assay [3] and in assay [4] was 50% each time.

Take `CCCCCCCCNC(=O)/C=C\SC(=O)c1sccc1C` [Compound 50, N-octyl-cis-3-[(3-methyl-2-thiophene)carbonylthio]acrylamide]: the MIC with Pseudomonas fluorescens was over 250 µg/mL. The pest or weed control at 50 ppm in assay [1] was 85%. Besides, the pest or weed control at 200 ppm with Piricularia oryzae (setting [6]) was found to be 0%; in assay [5], 75%. The pest or weed control at 100 ppm in the assay with Phytophthora infestans (read-out: % Control TLB) is 80%.

`CCCCCCCCNC(=O)/C=C\SC(=O)c1cc([N+](=O)[O-])cc([N+](=O)[O-])c1` [Compound 97, N-octyl-cis-3-[(3,5-dinitrobenzoyl)thio]acrylamide]: in the assay with Pseudomonas fluorescens, the MIC was over 250 µg/mL. The pest or weed control at 50 ppm in assay [1] stood at 0%. Also, the pest or weed control at 200 ppm turned out to be 70% in the assay on Piricularia oryzae (read-out: % Control RB); 0% in assay [2] (120 h, read-out: % Control RSB); 80% with Phytophthora infestans (read-out: % Control TLB); 0% in assay [3]. For the same compound, the pest or weed control at 12 ppm in assay [4] is 50%.

As for `CCCCCCCCNC(=O)/C=C\SC(=O)CC=Cc1ccccc1` [Compound 88, N-octyl-cis-3-[(4-phenylbut-3-enoyl)thio]acrylamide], the MIC in the assay on Pseudomonas fluorescens was over 250 µg/mL. In addition, the pest or weed control at 200 ppm in assay [1] was determined as 70%; in the assay with Piricularia oryzae (setting [6]), 90%; in the assay with Phytophthora infestans (read-out: % Control TLB), 90%; in assay [4] it was 0%. Also, the pest or weed control at 50 ppm in assay [3] was 80%. Besides, the pest or weed control at 100 ppm in assay [5] came out at 0%.

Take `CCCCCCCCNC(=O)/C=C\SC(=O)CCCC(=O)OC` [Compound 85, N-octyl-cis-3-[(4-methoxycarbonylbutanoyl)thio]acrylamide]: in the assay with Pseudomonas fluorescens, the MIC was over 250 µg/mL. The pest or weed control at 200 ppm in assay [1] worked out at 70%; in the assay with Piricularia oryzae (setting [6]), 90%; in assay [2] (120 h, read-out: % Control RSB), 0%; with Phytophthora infestans (read-out: % Control TLB) it was 90%; in assay [3] it was 80%; in assay [4] it was 0%.

`CC(C)(C)CC(C)(C)NC(=O)/C=C\SC(=O)c1ccccc1` [Compound 114]: the minimum inhibitory concentration (MIC) in the assay on Pseudomonas fluorescens is over 250 µg/mL. For the same compound, the pest or weed control at 200 ppm in assay [1] amounted to 95%; in the assay on Piricularia oryzae (setting [6]), 0%; in the assay on Phytophthora infestans (read-out: % Control TLB), 90%; in assay [3] it was 0%; in assay [4], 0%. Besides, in assay [5], the pest or weed control at 100 ppm worked out at 50%.

`CCCCCCCCNC(=O)/C=C\SC(=O)c1ccnc2ccccc12` [Compound 95, N-octyl-cis-3-[(4-quinoline)carbonylthio]acrylamide]: in the assay with Pseudomonas fluorescens, the MIC is over 250 µg/mL. For the same compound, the pest or weed control at 200 ppm worked out at 95% in assay [1]; 0% in assay [2] (120 h, read-out: % Control RSB); 80% in the assay with Phytophthora infestans (read-out: % Control TLB); 50% in assay [3]; 0% in assay [4]. In addition, the pest or weed control at 50 ppm with Piricularia oryzae (read-out: % Control RB) came to 70%.

On to `CCCCCCCCNC(=O)/C=C\SC(=O)CC1CC(C(C)=O)C1(C)C` (centres unmarked) [Compound 75], for which, in the assay on Pseudomonas fluorescens, the MIC is over 250 µg/mL. In addition, the pest or weed control at 200 ppm in assay [1] was found to be 0%; in the assay on Piricularia oryzae (setting [6]), 50%; in assay [3], 50%; in assay [4], 0%. For the same compound, the pest or weed control at 12 ppm in assay [2] (120 h, read-out: % Control RSB) came to 0%. Besides, in the assay with Phytophthora infestans (read-out: % Control TLB), the pest or weed control at 50 ppm amounted to 90%.

In the case of `C=CCCC(=O)S/C=C\C(=O)NCCCCCCCC` [Compound 83, N-octyl-cis-3-[(4-pentenoyl)thio]acrylamide], the MIC in the assay with Pseudomonas fluorescens was over 250 µg/mL. For the same compound, the pest or weed control at 200 ppm was found to be 95% in assay [1]; 50% with Piricularia oryzae (setting [6]); 0% in assay [2] (120 h, read-out: % Control RSB); 90% in the assay with Phytophthora infestans (read-out: % Control TLB); 50% in assay [3]; 0% in assay [4].

On to `CCCCCCCCNC(=O)/C=C\SC(=O)CC1CCCCC1` [Compound 94, N-octyl-cis-3-(cyclohexaneacetylthio)acrylamide], for which, in the assay on Pseudomonas fluorescens, the MIC is over 250 µg/mL. The pest or weed control at 200 ppm in assay [1] came to 70%; with Piricularia oryzae (setting [6]) it was 90%; in assay [2] (120 h, read-out: % Control RSB) it was 0%; in the assay with Phytophthora infestans (read-out: % Control TLB) it was 80%; in assay [3], 50%; in assay [4], 85%.

As for `CC(=O)S/C=C\C(=O)NC1CCCCCCCCCCC1` [Compound 90, N-cyclododecyl-cis-3-(acetylthio)acrylamide], the MIC in the assay on Pseudomonas fluorescens is over 250 µg/mL. Moreover, the pest or weed control at 200 ppm is 85% in assay [1]; 0% in the assay with Piricularia oryzae (setting [6]); 0% in assay [2] (120 h, read-out: % Control RSB); 0% in the assay with Phytophthora infestans (read-out: % Control TLB, application rate 200 ppm); 0% in assay [3]. For the same compound, the pest or weed control at 50 ppm in assay [4] amounted to 0%.

With `CC/C=C/C(=O)S/C=C\C(=O)NCCCCCCCC` [Compound 84, N-octyl-cis-3-[(trans-2-pentenoyl)thio]acrylamide], the MIC with Pseudomonas fluorescens is over 250 µg/mL. The pest or weed control at 200 ppm turned out to be 0% in assay [1]; 0% with Piricularia oryzae (setting [6]); 0% in assay [2] (120 h, read-out: % Control RSB); 90% in the assay on Phytophthora infestans (read-out: % Control TLB); 50% in assay [3]; 0% in assay [4].

A word on the MIC: it is the smallest concentration in the dilution series that meets the test's criterion for growth inhibition.
